# Assay results as given in article PMC8482274, “Inadequate Cerebrospinal Fluid Concentrations of Available Salvage Agents Further Impedes the Optimal Treatment of Multidrug-Resistant Enterococcus faecium Meningitis and Bacteremia” (Infectious Disease Reports, 2021).
# Like-named read-outs stand apart in the source and are kept apart here. Numbered stars: 1 amine (or outer) side, 2 acyl side, 3 side chain; on linkers, the order of the positions; unused ones are H or OH. Bridge positions count the residues as written; N and C are the ends. Square brackets hold non-standard residues; d marks the D form. Peptide text beside a SMILES is read from it. * marks the point of attachment. X1 = O=C1C[C@@H](C(=O)[*:2])N([*:1])C[C@H]1CS[C@@H]1CN2CCC1CC2; NMePhe(4-NMe2) = CN[C@@H](Cc1ccc(N(C)C)cc1)C(=O)O; Picolinoyl(3-OH) = O=C(c1ncccc1O)*; Phg = N[C@H](C(=O)O)c1ccccc1; dAbu = CC[C@@H](N)C(=O)O
# Key:
# [1] = cited from earlier work
# VREf isolates = experiment: microbe, parasite or virus in culture; details: for MIC: modal MIC of triplicate, CLSI guidelines
# Protocol: Initial organism identification and susceptibility determination were performed via MALDI-TOF MS (Bruker Daltonics, Billerica, MA, USA) and MicroScan Walkaway (Beckman Coulter, Brea, CA), respectively, in the clinical microbiology laboratory. Pure colonies of the VREf isolates cultured from the CSF on hospital days 33 and 57 and from blood on days 35 and 52 were sub-cultured to BD BBL chocolate II agar slants (Becton, Dickinson and Company, Sparks, MD, USA) and shipped immediately overnight to the research laboratory where all subsequent testing was performed. Identification and resistance marker detection was confirmed via the Verigene Gram-positive blood culture assay (Luminex, Northbrook, IL, USA).
# Minimum inhibitory concentrations were determined in triplicate according to CLSI guidelines. Modal MIC values are reported.
# [2] = parameters: method as in PMID 11408247; details: animal study; cited from earlier work
# [3] = Estimated unbound plasma concentration, CSF/plasma penetration and projected maximum CSF concentration extrapolated from published pharmacokinetic data; details: for CSF/plasma ratio: this patient
# Protocol: (§1) CSF samples were immediately frozen at −80 °C and shipped overnight on dry ice. […] Results are presented as the mean (±SD) of the two measured CSF concentrations. Additionally, estimated corresponding unbound plasma concentrations at the time of CSF collection were extrapolated for each agent from published pharmacokinetic data in order to establish an estimate of the degree of CSF/plasma penetration. This % CSF/plasma penetration was then utilized to predict the maximum post-dose CSF concentration on the basis of the peak free plasma concentration (fCmax) and the time of fCmax (Tmax) of each agent. Finally, these predictions were evaluated against published data, all of which were restricted to animal studies except for tigecycline.
# [4] = system: VREf isolate cultured from the CSF on hospital day 33; experiment: Time-kill experiments; type: cell-based, Enterococcus faecium; details: at mean measured CSF concentration; triplicate
# Protocol: Next, the 5 drugs were tested in combination at their respective extrapolated maximal CSF concentration as described.
# [5] = CSF drug concentrations from day 57 lumbar puncture by LC-MS/MS; details: one patient, systemic dosing at steady state, LLOQ 0.001 mg/L, mean of two CSF tubes, time after last dose: gentamicin 77:30, oritavancin 46:54, tigecycline 8:27, tedizolid 8:25, quinupristin/dalfopristin 2:00 h:m
# Protocol: as §1
# [6] = cited from earlier work; remark: listed apart in the source
# Excerpt: Almost exactly 2 days had elapsed between the time of the patient’s last oritavancin dose and the time of CSF collection.
# [7] = parameters: method as in PMID 16982782, PMID 17043116, PMID 21585240, PMID 25216547; details: cited from earlier work
# [8] = parameters: method as in PMID 31295511; details: average in uninfected rats; cited from earlier work
# [9] = cited from earlier work; remark: listed apart in the source
# [10] = Enterococcus faecium, VREf isolate from CSF, hospital day 57
# [11] = Enterococcus faecium, VREf isolate from blood, hospital day 52
# [12] = VREf isolate from CSF, hospital day 57, CLSI M100-S30 unless footnoted
# [13] = VREf isolate from blood, hospital day 52, CLSI M100-S30 unless footnoted
# [14] = Enterococcus faecium, VREf isolate from CSF, hospital day 33
# [15] = Enterococcus faecium, VREf isolate from blood, hospital day 35
structure (smiles),measurement,setting,value
CCN(CC)CCS(=O)(=O)[C@@H]1CCN2C(=O)c3coc(n3)CC(=O)C[C@H](O)/C=C(C)/C=C/CNC(=O)/C=C/[C@@H](C)[C@@H](C(C)C)OC(=O)[C@@H]12 [Dalfopristin],Published % CSF/Plasma Penetration,[1]; rabbit pneumococcal meningitis data,"0 [23, 27] %"
CN(C)[C@@H]1C(O)=C(C(N)=O)C(=O)[C@@]2(O)C(O)=C3C(=O)c4c(O)c(NC(=O)CN5CCCC5)cc(F)c4C[C@H]3C[C@@H]12 [Eravacycline],MIC,VREf isolates; [10],0.12 µg/mL
same,MIC,VREf isolates; [11],0.12 µg/mL
same,Interpretive Category,VREf isolates; [12],S
same,Interpretive Category,VREf isolates; [13],S
same,CNS penetration,[1]; rabbits,virtually zero
CN[C@H](CC(C)C)C(=O)N[C@H]1C(=O)N[C@@H](CC(N)=O)C(=O)N[C@H]2C(=O)N[C@H]3C(=O)N[C@H](C(=O)N[C@H](C(=O)O)c4cc(O)cc(O)c4-c4cc3ccc4O)[C@H](O[C@H]3C[C@](C)(N)[C@@H](O)[C@H](C)O3)c3ccc(c(Cl)c3)Oc3cc2cc(c3O[C@@H]2O[C@H](CO)[C@@H](O)[C@H](O)[C@H]2O[C@H]2C[C@](C)(NCc3ccc(-c4ccc(Cl)cc4)cc3)[C@@H](O)[C@H](C)O2)Oc2ccc(cc2Cl)[C@H]1O [Oritavancin],Published % CSF/Plasma Penetration,[2],1–5 [26] %
same,MIC,"VREf isolates; VREf isolate from CSF, hospital day 33",0.25 µg/mL
same,MIC,"VREf isolates; VREf isolate from CSF, hospital day 57",0.25 µg/mL
same,MIC,"VREf isolates; VREf isolate from blood, hospital day 35",0.25 µg/mL
same,MIC,"VREf isolates; VREf isolate from blood, hospital day 52",0.25 µg/mL
same,projected maximal CSF concentration at plasma Tmax,[3]; point estimate,0.014 mg/L
same,CSF/plasma ratio,[3]; point estimate,0.07%
same,bacterial growth (increase) at 24 h compared to the starting inoculum,[4],0.69 log10 CFU/mL
same,Mean (±SD) Measured CSF Concentration,[5],0.013 ± 0.005 mg/L
same,fCmax,"[6]; plasma, after a 1200 mg dose, published pharmacokinetic data, ref not given",20.7 mg/L
same,half-life,"[6]; plasma, published pharmacokinetic data, ref not given",245 h
CC[C@H]1NC(=O)[C@@H](NC(=O)c2ncccc2O)[C@@H](C)OC(=O)[C@H](c2ccccc2)NC(=O)[C@@H]2CC(=O)[C@H](CS[C@@H]3CN4CCC3CC4)CN2C(=O)[C@H](Cc2ccc(N(C)C)cc2)N(C)C(=O)[C@@H]2CCCN2C1=O [Quinupristin] ({Picolinoyl(3-OH)}-T[dAbu]P[NMePhe(4-NMe2)][X1][Phg]; ester 1-C),Published % CSF/Plasma Penetration,"[1]; rabbit, in vivo","0 [23, 27] %"
Cn1nnc(-c2ccc(-c3ccc(N4C[C@H](CO)OC4=O)cc3F)cn2)n1 [Tedizolid],MIC,VREf isolates; [14],2 µg/mL
same,MIC,VREf isolates; [10],2 µg/mL
same,MIC,VREf isolates; [15],2 µg/mL
same,MIC,VREf isolates; [11],2 µg/mL
same,projected maximal CSF concentration at plasma Tmax,[3]; in vivo,roughly 0.3 mg/L
same,CSF/plasma ratio,[3]; point estimate,approximately 50%
same,protein binding,[7],80%
same,Published % CSF/Plasma Penetration,[8],2.2 [16] %
same,half-life,"[6]; in vivo, iv",12 h
same,steady-state plasma fCmax,"[6]; in vivo, iv",0.6 mg/L
CN(C)c1cc(NC(=O)CNC(C)(C)C)c(O)c2c1C[C@H]1C[C@H]3[C@H](N(C)C)C(O)=C(C(N)=O)C(=O)[C@@]3(O)C(O)=C1C2=O [Tigecycline],MIC,VREf isolates; [14],0.25 µg/mL
same,MIC,VREf isolates; [10],0.25 µg/mL
same,MIC,VREf isolates; [15],0.25 µg/mL
same,MIC,VREf isolates; [11],0.25 µg/mL
same,Interpretive Category,"VREf isolates; VREf isolate from CSF, hospital day 33, CLSI M100-S30 unless footnoted (b: CLSI vancomycin-susceptible E. faecalis; c: FDA E. faecalis; d: EUCAST v.10.0 E. faecium)",S
same,Interpretive Category,VREf isolates; [12],S
same,Interpretive Category,"VREf isolates; VREf isolate from blood, hospital day 35, CLSI M100-S30 unless footnoted",S
same,Interpretive Category,VREf isolates; [13],S
same,projected maximal CSF concentration at plasma Tmax,[3]; in vivo,approximately 0.197 mg/L
same,CSF/plasma ratio,[3]; point estimate,65.5%
same,penetration ratios,[9]; a patient with cerebritis due to Acinetobacter,7–36%
same,Published % CSF/Plasma Penetration,"[9]; human, in vivo","5–41 [21, 22] %"
same,half-life,[6]; in vivo,≈ 30 h
